Values of other authors in patent US7553863B2, “Ultrapure 4-methylpyrazole” (Paladin Labs (Barbados) Inc., priority 2005, dated 2009).

Experiments:
[1] = H. Kohno et al., Cancer Sci. 2005
[2] = Eisses, 1995
[3] = tested on: brain levels of noradrenaline; conditions: in contrast to 4-methylpyrazole; E. MacDonald, Acta Pharmacol. et Toxicol. 1976
[4] = tested on: alcohol dehydrogenase; conditions: relative to 4-methylpyrazole; T. Li et al., Acta Chem. Scan. 1969

Structure (SMILES)	mutagenicity and carcinogenicity [1]	teratogenicity [2]	effect on brain levels of noradrenaline [3]	fold less potency against alcohol dehydrogenase [4] [fold]
NN [Hydrazine]	known mutagens and carcinogens			
c1cn[nH]c1 [Pyrazole]		known teratogen	detrimental effect	10
